According to PubChem BioAssay (NCI):
Several values for one entry are separate records, joined by “and”; a condition that tells them apart may be missing. Equal values may be shown once.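 Test compounds were applied to cells in 96-well plates for 48 hours at 5 doses. GI50 marks 50% less growth. Definition used: TGI = concentration required for complete inhibition of growth.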

Tests used:
Experiment in all cases: NCI-60 cell line screen, 48 h
MDA-MB-468 breast = system: MDA-MB-468 breast
OVCAR-5 ovarian = system: OVCAR-5 ovarian
A549 NSCLC = system: A549 NSCLC
MDA-MB-435 = system: MDA-MB-435
NCI/ADR-RES ovarian = system: NCI/ADR-RES ovarian
SK-MEL-5 melanoma = system: SK-MEL-5 melanoma
SW-620 colon = system: SW-620 colon
SK-MEL-28 melanoma = system: SK-MEL-28 melanoma
HCT-15 colon = system: HCT-15 colon
RXF 393 renal = system: RXF 393 renal
T-47D breast = system: T-47D breast
OVCAR-8 ovarian = system: OVCAR-8 ovarian
MALME-3M melanoma = system: MALME-3M melanoma
SK-OV-3 ovarian = system: SK-OV-3 ovarian
NCI-H460 lung = system: NCI-H460 lung
SR leukemia = system: SR leukemia
ACHN renal = system: ACHN renal
PC-3 prostate = system: PC-3 prostate
TK-10 renal = system: TK-10 renal
BT-549 breast = system: BT-549 breast
SF-268 CNS = system: SF-268 CNS
HCC-2998 colon = system: HCC-2998 colon
COLO 205 colon = system: COLO 205 colon
NCI-H522 lung = system: NCI-H522 lung
SNB-19 CNS = system: SNB-19 CNS
RPMI-8226 leukemia = system: RPMI-8226 leukemia
A498 renal = system: A498 renal
NCI-H23 lung = system: NCI-H23 lung
MDA-MB-231 breast = system: MDA-MB-231 breast
HT29 colon = system: HT29 colon
SF-539 CNS = system: SF-539 CNS
CAKI-1 renal = system: CAKI-1 renal
K-562 leukemia = system: K-562 leukemia
UO-31 renal = system: UO-31 renal
HS 578T breast = system: HS 578T breast
OVCAR-3 ovarian = system: OVCAR-3 ovarian
NCI-H226 lung = system: NCI-H226 lung
MOLT-4 leukemia = system: MOLT-4 leukemia
OVCAR-4 ovarian = system: OVCAR-4 ovarian
HOP-92 NSCLC = system: HOP-92 NSCLC
SK-MEL-2 melanoma = system: SK-MEL-2 melanoma
HOP-62 NSCLC = system: HOP-62 NSCLC
KM12 colon = system: KM12 colon
M14 melanoma = system: M14 melanoma
786-0 renal = system: 786-0 renal
SNB-75 CNS = system: SNB-75 CNS
SF-295 CNS = system: SF-295 CNS
CCRF-CEM leukemia = system: CCRF-CEM leukemia
U251 CNS = system: U251 CNS
UACC-62 melanoma = system: UACC-62 melanoma
SN12C renal = system: SN12C renal
UACC-257 melanoma = system: UACC-257 melanoma
MCF7 breast = system: MCF7 breast
EKVX NSCLC = system: EKVX NSCLC
HL-60(TB) leukemia = system: HL-60(TB) leukemia
DU-145 prostate = system: DU-145 prostate
IGROV1 ovarian = system: IGROV1 ovarian
LOX IMVI melanoma = system: LOX IMVI melanoma
HCT-116 colon = system: HCT-116 colon

## CCN(CC)CCOc1ccc(C(=C(C)c2ccc(OC)cc2)c2ccc(OCCN(CC)CC)cc2)cc1
MDA-MB-468 breast
  GI50: 0.83 µM
  TGI: 1.86 µM

## COc1ccc(F)c(F)c1C(=O)c1cnc(NC2CCN(S(C)(=O)=O)CC2)nc1N
MDA-MB-468 breast
  GI50: 1.37 µM and 0.687 µM
  TGI: 3.54 µM and 2.7 µM

## O=[N+]([O-])c1ccc(-c2cc3c(Nc4ccc(Cl)c(C(F)(F)F)c4)ncnc3s2)cc1
MDA-MB-468 breast
  GI50: 1.64 µM
  TGI: 6.03 µM

## CCNCCNc1cc(-c2ccc(C#N)cc2)c(C#N)c2nc3ccccc3n12
MDA-MB-468 breast
  GI50: 1.79 µM
  TGI: 4.15 µM

## CCOC(=O)N1CCN(CCCCCOc2ccccc2C2CCCCC2)CC1
MDA-MB-468 breast
  GI50: 2.41 µM
  TGI: 8.46 µM

## CCOc1ccc(Nc2c3ccccc3nc3ccccc23)cc1
MDA-MB-468 breast
  GI50: 0.258 µM and 0.325 µM
  TGI: 0.987 µM and 2.32 µM

## CCCCCCCCCCCCCC[n+]1cccc(C(N)=O)c1
MDA-MB-468 breast
  GI50: 0.567 µM
  TGI: 2.56 µM

## CC(=Nc1ccc(S(N)(=O)=O)cc1)c1c(O)[nH]c2ccccc12
MDA-MB-468 breast
  GI50: > 25 µM
  TGI: > 25 µM

## COc1ccc(-n2nc(C)c3c(Nc4ccc(NC(=O)Nc5ccc(Cl)c(C(F)(F)F)c5)cc4)ncnc32)cc1
MDA-MB-468 breast
  GI50: 1.88 µM
  TGI: 4.62 µM

## Nn1c(=O)n(-c2cccc(C(F)(F)F)c2)c(=O)c2cc(-c3ccc(F)cc3F)ccc21
MDA-MB-468 breast
  GI50: 1.99 µM
  TGI: 6.21 µM

## O=C(c1cccs1)C1NO[N+]([O-])=C1c1cccs1 (centres undefined)
MDA-MB-468 breast
  GI50: 1.69 µM
  TGI: 3.38 µM

## OCc1ccc(N2CCOCC2)cc1Cl
MDA-MB-468 breast
  GI50: 0.732 µM
  TGI: 3.1 µM

## CCn1c(-c2nonc2N)nc2ccncc21
MDA-MB-468 breast
  GI50: > 25 µM
  TGI: > 25 µM

## COc1cc2oc(-c3cccc(C(=O)Nc4ccc(Cl)cc4)c3)cc(=O)c2c(OCCNC(=O)[C@H](CO)NC(=O)OC(C)(C)C)c1OC
OVCAR-5 ovarian
  GI50: 8.01 µM
  TGI: > 100 µM
A549 NSCLC
  GI50: 10.5 µM
  TGI: > 100 µM
MDA-MB-435
  GI50: 12.4 µM
  TGI: 42.6 µM
NCI/ADR-RES ovarian
  GI50: 51.4 µM
  TGI: > 100 µM
SK-MEL-5 melanoma
  GI50: 5.48 µM
  TGI: 19.6 µM
SW-620 colon
  GI50: 30.1 µM
  TGI: > 100 µM
SK-MEL-28 melanoma
  GI50: 9.5 µM
  TGI: 28.2 µM
HCT-15 colon
  GI50: 7.43 µM
  TGI: > 100 µM
RXF 393 renal
  GI50: 4.2 µM
  TGI: 22 µM
T-47D breast
  GI50: 5.63 µM
  TGI: > 100 µM
OVCAR-8 ovarian
  GI50: 5.78 µM
  TGI: > 100 µM
MALME-3M melanoma
  GI50: 11 µM
  TGI: 51.5 µM
SK-OV-3 ovarian
  GI50: 79.2 µM
  TGI: > 100 µM
NCI-H460 lung
  GI50: 6.48 µM
  TGI: > 100 µM
SR leukemia
  GI50: 3.01 µM
  TGI: 18.2 µM
ACHN renal
  GI50: 19.5 µM
  TGI: > 100 µM
PC-3 prostate
  GI50: 6.82 µM
  TGI: > 100 µM
TK-10 renal
  GI50: 19.9 µM
  TGI: > 100 µM
BT-549 breast
  GI50: 3.06 µM
  TGI: 19.9 µM
SF-268 CNS
  GI50: 21.5 µM
  TGI: > 100 µM
HCC-2998 colon
  GI50: 15.5 µM
  TGI: 74 µM
COLO 205 colon
  GI50: 7.16 µM
  TGI: 71.6 µM
NCI-H522 lung
  GI50: 5.18 µM
  TGI: > 100 µM
SNB-19 CNS
  GI50: 28.8 µM
  TGI: > 100 µM
RPMI-8226 leukemia
  GI50: 2.85 µM
  TGI: > 100 µM
A498 renal
  GI50: 27.2 µM
  TGI: 77.9 µM
NCI-H23 lung
  GI50: 14.9 µM
  TGI: > 100 µM
MDA-MB-231 breast
  GI50: 4.7 µM
  TGI: 33.9 µM
HT29 colon
  GI50: 6.92 µM
  TGI: 57.4 µM
SF-539 CNS
  GI50: 12.1 µM
  TGI: 45 µM
CAKI-1 renal
  GI50: 5.8 µM
  TGI: > 100 µM
K-562 leukemia
  GI50: 4.23 µM
  TGI: > 100 µM
UO-31 renal
  GI50: 19.9 µM
  TGI: > 100 µM
HS 578T breast
  GI50: 8.01 µM
  TGI: 94.6 µM
OVCAR-3 ovarian
  GI50: 10.8 µM
  TGI: > 100 µM
NCI-H226 lung
  GI50: 13.8 µM
  TGI: > 100 µM
MOLT-4 leukemia
  GI50: 3.2 µM
  TGI: 21.8 µM
OVCAR-4 ovarian
  GI50: 9.86 µM
  TGI: > 100 µM
HOP-92 NSCLC
  GI50: 4.24 µM
  TGI: > 100 µM
SK-MEL-2 melanoma
  GI50: 15.4 µM
  TGI: > 100 µM
HOP-62 NSCLC
  GI50: 16.1 µM
  TGI: > 100 µM
KM12 colon
  GI50: 28.7 µM
  TGI: > 100 µM
M14 melanoma
  GI50: 8.53 µM
  TGI: 55.6 µM
786-0 renal
  GI50: 19.7 µM
  TGI: > 100 µM
SNB-75 CNS
  GI50: 8.45 µM
  TGI: > 100 µM
SF-295 CNS
  GI50: 12.4 µM
  TGI: 53.2 µM
CCRF-CEM leukemia
  GI50: 5.54 µM
  TGI: > 100 µM
MDA-MB-468 breast
  GI50: 13.9 µM
  TGI: 35 µM
U251 CNS
  GI50: 17.8 µM
  TGI: > 100 µM
UACC-62 melanoma
  GI50: 20.3 µM
  TGI: > 100 µM
SN12C renal
  GI50: 8.47 µM
  TGI: > 100 µM
UACC-257 melanoma
  GI50: 12.6 µM
  TGI: 27.8 µM
MCF7 breast
  GI50: 10.1 µM
  TGI: > 100 µM
EKVX NSCLC
  GI50: 9.89 µM
  TGI: > 100 µM
HL-60(TB) leukemia
  GI50: 5.41 µM
  TGI: 22.1 µM
DU-145 prostate
  GI50: 17.8 µM
  TGI: > 100 µM
IGROV1 ovarian
  GI50: 10.7 µM
  TGI: > 100 µM
LOX IMVI melanoma
  GI50: 3.82 µM
  TGI: 20.7 µM
HCT-116 colon
  GI50: 6.03 µM
  TGI: > 100 µM
